Experimental data published in patent US20060025566A1, “Macrocyclic modulators of the ghrelin receptor” (Tranzyme Pharma Inc., priority 2003, published 2006).
Where two headings read alike, the source gives them in different places.

How the values were obtained:
[1] = target: human ghrelin receptor (hGHS-R1a) (Homo sapiens, UniProt Q92847); experiment: Aequorin functional assay (ghrelin receptor), CHO-K1 cells co-expressing Gα16 and aequorin; type: cell-based; conditions: functional (agonist) activity, standard method; TFA salts unless otherwise noted
Chain of human ghrelin receptor (hGHS-R1a) (Q92847 whole entry): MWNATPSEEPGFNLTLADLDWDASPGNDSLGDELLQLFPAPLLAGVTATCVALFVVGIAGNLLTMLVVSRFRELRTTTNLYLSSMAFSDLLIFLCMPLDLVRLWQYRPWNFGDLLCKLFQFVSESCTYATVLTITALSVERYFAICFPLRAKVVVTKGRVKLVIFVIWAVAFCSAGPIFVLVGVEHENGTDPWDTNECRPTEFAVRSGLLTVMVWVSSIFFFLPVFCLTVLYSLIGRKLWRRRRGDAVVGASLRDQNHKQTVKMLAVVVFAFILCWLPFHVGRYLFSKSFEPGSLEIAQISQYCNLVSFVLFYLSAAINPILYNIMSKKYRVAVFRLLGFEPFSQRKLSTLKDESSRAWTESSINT
Description: Coelenterazine (Molecular Probes, Leiden, The Netherlands). […] Compound Handling
(§1) • 1. […] Key Aspects of Method • 1. […] Results

[2] = target: T1, human growth hormone secretagogue receptor (hGHS-R1a) (Homo sapiens, UniProt Q92847); experiment: Competitive radioligand binding assay (ghrelin receptor), [125I]-ghrelin displacement on GHS-R/HEK 293 membranes
T1 construct: purchased PerkinElmer BioSignal #RBHGHSM, lot#1887; host or cells: HEK-293, stably transfected (membranes)
T1 sequence (Q92847 whole entry): as above
Protocol: The competitive binding assay at the human growth hormone secretagogue receptor (hGHS-R1a) was carried out analogously to assays described in the literature.
Multiscreen Harvest plates-GF/C (Millipore, #MAHFC 1H60) • 4. […] Bottom seal (Millipore, #MATAH0P00) • 7. […] Binding Buffer: 25 mM Hepes (pH 7.4), 1 mM CaCl2, 5 mM MgCl2, 2.5 mM EDTA, 0.4% BSA Assay Volumes
Competition experiments were performed in a 300 μl filtration assay format. • 1. 220 μL of membranes diluted in binding buffer • 2. 40 μL of compound diluted in binding buffer • 3. […] Compound Handling
Compounds were provided frozen on dry ice at a stock concentration of 10 mM diluted in 100% DMSO and stored at −80° C. until the day of testing. On the test day, compounds were allowed to thaw at rt O/N and then diluted in assay buffer according to the desired test concentrations.
Plates were sealed with TopSeal-A, vortexed gently and incubated at rt for 30 min. The reaction was arrested by filtering samples through Multiscreen Harvest plates (pre-soaked in 0.5% polyethyleneimine) using a Tomtec Harvester, washed 9 times with 500 μL of cold 50 mM Tris-HCl (pH 7.4, 4° C.), and then plates were air-dried in a fumehood for 30 min. A bottom seal was applied to the plates prior to the addition of 25 μL of MicroScint-0 to each well. […] Results were expressed as counts per minute (cpm).
Data were analyzed by GraphPad Prism (GraphPad Software, San Diego, Calif.) using a variable slope non-linear regression analysis.
as §1

[3] = [125I]-ghrelin competition, GHS-R/HEK 293 membranes, Table 3A, read-out: Binding Activity at the Human Ghrelin Receptor
[4] = binding activity, standard method, TFA salts unless otherwise noted, read-out: Ki
[5] = binding activity at the human ghrelin receptor, [125I]-ghrelin competition, GHS-R/HEK 293 membranes, read-out: Ki
[6] = binding activity at the human ghrelin receptor, [125I]-ghrelin displacement, read-out: Ki
[7] = second table titled 3C (compounds 435-449), human ghrelin receptor, read-out: Ki

CCC(C)C1NCc2ccccc2CCCCNC(=O)C(Cc2ccccc2)NC(=O)C(C)N(C)C1=O (single isomer, unassigned) [194a]
EC50 [1]: 100 to 1000 nM | Ki [2, 3]: 100 to 1000 nM | Ki [2, 4]: 100 to 1000 nM

CC(C)C[C@@H]1NCCOc2ccccc2C=CCNC(=O)[C@H](Cc2ccccc2)NC(=O)C2(CCCC2)NC1=O (stereo in doubt) [Compound 8]
EC50 [1]: 1 to 100 nM | Ki [2, 5]: 10 to 100 nM | Ki [2, 4]: 10 to 100 nM

CC(C)C[C@@H]1NCCOc2ccccc2C=CCNC(=O)[C@H](Cc2ccc(Cl)cc2)NC(=O)C2(CCCC2)NC1=O (stereo in doubt) [compound 153]
EC50 [1]: 1 to 100 nM | Ki [2, 5]: 10 to 100 nM | Ki [2, 4]: 10 to 100 nM

CC(C)C[C@@H]1NCCOc2ccccc2C=CCNC(=O)[C@H](Cc2ccc(F)cc2)NC(=O)C2(CCCC2)NC1=O (stereo in doubt) [compound 154]
EC50 [1]: 1 to 100 nM | Ki [2, 5]: 10 to 100 nM | Ki [2, 4]: 10 to 100 nM

CC1(C)NC(=O)C2(CCCC2)NCCOc2ccccc2C=CCNC(=O)[C@H](Cc2cccc(Cl)c2)NC1=O (stereo in doubt) [compound 334]
EC50 [1]: 1 to 100 nM | Ki ([2]; Table 3C (compounds 18, 334-397), human ghrelin receptor, read-out: Ki): 10 to 100 nM | Ki [2, 4]: 10 to 100 nM

CC(C)[C@@H]1NCCOc2ccccc2CCCNC(=O)[C@@H](Cc2ccccc2)NC(=O)CN(C)C1=O [Compound 3]
EC50 [1]: 100 to 1000 nM | Ki [2, 5]: 100 to 1000 nM | Ki [2, 4]: 100 to 1000 nM

CCC[C@@H]1NCCOc2ccccc2CCCNC(=O)[C@@H](Cc2c[nH]c3ccccc23)NC(=O)CN(C)C1=O [Compound 6]
EC50 [1]: 1 to 100 nM | Ki [2, 5]: 100 to 1000 nM | Ki [2, 4]: 100 to 1000 nM

CC(C)[C@@H]1NCCOc2ccccc2CCCNC(=O)[C@H](Cc2ccccc2)NC(=O)C2(CCCC2)NC1=O [Compound 9]
EC50 [1]: 100 to 1000 nM | Ki [2, 5]: 100 to 1000 nM | Ki [2, 4]: 100 to 1000 nM

CC[C@H](C)[C@@H]1NCCOc2ccccc2CCCNC(=O)[C@@H](Cc2ccccc2)NC(=O)[C@@H](C)NC1=O [compound 2]
EC50 [1]: 100 to 1000 nM | Ki [2, 5]: 100 to 1000 nM | Ki [2, 4]: 100 to 1000 nM

CCC[C@@H]1NCCOc2ccccc2CCCNC(=O)[C@@H](Cc2ccccc2)NC(=O)CN(CC)C1=O [compound 5]
EC50 [1]: 100 to 1000 nM | Ki [2, 5]: 100 to 1000 nM

CC[C@H](C)[C@@H]1NCCOc2ccccc2CCCNC(=O)[C@@H](Cc2ccccc2Cl)NC(=O)[C@@H](C)N(C)C1=O [compound 23]
EC50 [1]: 1 to 100 nM | Ki [2, 5]: 0.1 to 10 nM | Ki [2, 4]: 0.1 to 10 nM

CC[C@H](C)[C@@H]1NCCOc2ccccc2CCCNC(=O)[C@@H](Cc2cccc3ccccc23)NC(=O)[C@@H](C)N(C)C1=O [compound 30]
EC50 [1]: 1 to 100 nM | Ki [2, 5]: 0.1 to 10 nM | Ki [2, 4]: 0.1 to 10 nM

CC(C)C[C@@H]1NCCOc2ccccc2CCCNC(=O)[C@@H](Cc2ccccc2)NC(=O)C2(CCCC2)NC1=O [compound 97]
EC50 [1]: 100 to 1000 nM | Ki [2, 5]: 100 to 1000 nM | Ki [2, 4]: 10 to 100 nM

CC(C)C[C@@H]1NCCOc2ccccc2CCCNC(=O)[C@H](Cc2ccccc2)NC(=O)C2(CC2)NC1=O [compound 111]
EC50 [1]: 100 to 1000 nM | Ki [2, 5]: 100 to 1000 nM | Ki [2, 4]: 10 to 100 nM

CC(C)CC1NCCOc2ccccc2CCCNC(=O)C(Cc2ccccc2)NC(=O)C2(CCCC2)NC1=O (stereo not shown) [compound 113]
EC50 [1]: 100 to 1000 nM | Ki [2, 5]: 100 to 1000 nM | Ki [2, 4]: 10 to 100 nM

CC(C)C[C@@H]1NCCOc2ccccc2/C=C/CNC(=O)C2(CCCC2)NC(=O)C2(CCCC2)NC1=O [compound 168]
EC50 [1]: > 1000 nM | Ki [2, 3]: 100 to 1000 nM | Ki [2, 4]: 100 to 1000 nM

CC(C)C1NCCOc2ccccc2CCCNC(=O)C(Cc2ccccc2)NC(=O)C2(CCNCC2)NC1=O (stereo not shown) [compound 207]
Ki [2, 3]: > 10000 nM

CC[C@H](C)[C@@H]1NCCOc2ccccc2CCCNC(=O)[C@@H]([C@@H](C)CC)NC(=O)[C@@H](C)N(C)C1=O [compound 209]
Ki [2, 3]: 100 to 1000 nM

CCC(C)C1NCCOc2ccccc2CCCNC(=O)C(Cc2ccccc2)NC(=O)C(CC)N(C)C1=O (stereo not shown) [compound 212]
Ki [2, 3]: 100 to 1000 nM

CCC(C)C1NCCOc2ccccc2CCCNC(=O)C(Cc2ccccc2)NC(=O)C2CSCN2C1=O (stereo not shown) [compound 213]
Ki [2, 3]: > 1000 nM

CCC(C)C1NCCOc2ccccc2CCCNC(=O)C(Cc2ccccc2)NC(=O)C(COC(C)(C)C)NC1=O (stereo not shown) [compound 215]
Ki [2, 3]: 1000 to 10000 nM

CC(C)[C@@H]1NCCOc2ccccc2CCCNC(=O)[C@H](Cc2ccccc2)NC(=O)C2(CC2)NC1=O [compound 216]
Ki [2, 3]: 1000 to 10000 nM

C[C@@H]1C(=O)N[C@H](Cc2ccccc2)C(=O)NCCCc2ccccc2OCCN2CCCC[C@H]2C(=O)N1C [compound 226]
EC50 [1]: > 1000 nM | Ki [2, 4]: 10 to 100 nM

CC1C(=O)NC(Cc2ccc(Cl)cc2)C(=O)NCCCc2ccccc2OCCNC(C2CC2)C(=O)N1C (stereo not shown) [compound 299]
EC50 [1]: 1 to 100 nM | Ki [2, 6]: 0.1 to 10 nM | Ki [2, 4]: 0.1 to 10 nM

CC[C@H](C)[C@@H]1NCCOc2ccccc2CCCNC(=O)[C@@H](Cc2c[nH]cn2)NC(=O)[C@@H](C)N(C)C1=O [compound 305]
Ki [2, 6]: 100 to 1000 nM

C[C@@H]1C(=O)N[C@H](Cc2ccc(F)cc2)C(=O)NCCCc2ccccc2OCCN[C@@H](C2CC2)C(=O)N1C [compound 309]
Ki [2, 6]: 0.1 to 10 nM

C[C@@H]1C(=O)N[C@H](Cc2ccccc2F)C(=O)NCCCc2ccccc2OCCN[C@@H](C2CC2)C(=O)N1C [compound 312]
Ki [2, 6]: 0.1 to 10 nM

CC1C(=O)NC(Cc2ccc(Cl)c(Cl)c2)C(=O)NCCCc2ccccc2OCCNC(C2CC2)C(=O)N1C (stereo not shown) [compound 315]
Ki [2, 6]: 0.1 to 10 nM

C[C@@H]1C(=O)N[C@H](Cc2ccc(F)c(F)c2)C(=O)NCCCc2ccccc2OCCN[C@@H](C2CC2)C(=O)N1C [compound 316]
Ki [2, 6]: 10 to 100 nM

C[C@@H]1C(=O)N[C@H](Cc2cc(F)cc(F)c2)C(=O)NCCCc2ccccc2OCCN[C@@H](C2CC2)C(=O)N1C [compound 317]
Ki [2, 6]: 10 to 100 nM

C[C@@H]1C(=O)N[C@H](Cc2ccc(Br)cc2)C(=O)NCCCc2ccccc2OCCN[C@@H](C2CC2)C(=O)N1C [compound 319]
Ki [2, 6]: 0.1 to 10 nM

C[C@@H]1C(=O)N[C@H](Cc2ccc(I)cc2)C(=O)NCCCc2ccccc2OCCN[C@@H](C2CC2)C(=O)N1C [compound 320]
Ki [2, 6]: 0.1 to 10 nM

C[C@@H]1C(=O)N[C@H](Cc2ccc(C#N)cc2)C(=O)NCCCc2ccccc2OCCN[C@@H](C2CC2)C(=O)N1C [compound 321]
Ki [2, 6]: 10 to 100 nM

CC1C(=O)NC(Cc2ccc(C(F)(F)F)cc2)C(=O)NCCCc2ccccc2OCCNC(C2CC2)C(=O)N1C (stereo not shown) [compound 322]
EC50 [1]: 1 to 100 nM | Ki [2, 6]: 0.1 to 10 nM | Ki [2, 4]: 0.1 to 10 nM

CCC(C)C1NCCOc2ccccc2C=CCNC(=O)C(Cc2cccc(F)c2)NC(=O)C2(CCCC2)NC1=O (stereo not shown) [compound 325]
Ki [2, 6]: 10 to 100 nM

CCC(C)C1NCCOc2ccccc2C=CCNC(=O)C(Cc2cccc(OC)c2)NC(=O)C2(CCCC2)NC1=O (stereo not shown) [compound 328]
Ki [2, 6]: 10 to 100 nM

COC[C@@H]1NCCOc2ccccc2CCCNC(=O)[C@@H](Cc2ccc(F)cc2)NC(=O)[C@@H](C)N(C)C1=O [compound 336]
Ki [2, 6]: 100 to 1000 nM

C[C@@H]1C(=O)N[C@H](Cc2ccc(F)cc2)C(=O)NCCCc2ccccc2OCCN[C@@H](CN)C(=O)N1C [compound 337]
Ki [2, 6]: 100 to 1000 nM

C[C@@H]1C(=O)N[C@H](Cc2ccc(F)cc2)C(=O)NCCCc2ccccc2OCCN[C@@H](CCN)C(=O)N1C [compound 338]
Ki [2, 6]: 100 to 1000 nM

C[C@@H]1C(=O)N[C@H](Cc2ccc(F)cc2)C(=O)NCCCc2ccccc2OCCN[C@@H](CCCN)C(=O)N1C [compound 339]
Ki [2, 6]: 100 to 1000 nM

CSCC[C@@H]1NCCOc2ccccc2CCCNC(=O)[C@@H](Cc2ccc(F)cc2)NC(=O)[C@@H](C)N(C)C1=O [compound 340]
Ki [2, 6]: 10 to 100 nM

COc1ccccc1C[C@@H]1NCCOc2ccccc2/C=C/CNC(=O)[C@H](Cc2cccc(Cl)c2)NC(=O)C2(CCCC2)NC1=O [compound 343]
Ki [2, 6]: 100 to 1000 nM

CCC(C)C1NCCOc2ccccc2C=CCNC(=O)C(COCc2ccccc2)NC(=O)C2(CCCC2)NC1=O (stereo not shown) [compound 347]
Ki [2, 6]: 100 to 1000 nM

C[C@@H]1C(=O)N[C@H](Cc2cc(F)c(F)c(F)c2)C(=O)NCCCc2ccccc2OCCN[C@@H](C2CC2)C(=O)N1C [compound 391]
Ki [2, 6]: 0.1 to 10 nM

CC1C(=O)NC(Cc2ccc(F)cc2)C(=O)NCC=Cc2ccccc2OCCNC(C2CC2)C(=O)N1C (stereo not shown) [compound 401]
Ki [2, 6]: 0.1 to 10 nM

O=C1NC/C=C/c2ccccc2OCCNC2(CCCC2)C(=O)NC2(CCCC2)C(=O)N[C@H]1Cc1cccc(Cl)c1 [compound 437]
Ki [2, 7]: 0.1 to 10 nM

CCC(C)C1NCCOc2ccccc2C=CCNC(=O)C(Cc2ccc(C(=O)O)cc2)NC(=O)C2(CCCC2)NC1=O (stereo not shown) [compound 441]
Ki [2, 7]: 1000 to 10000 nM

CCC(C)C1NCCOc2ncccc2CCCNC(=O)C(Cc2cccc(Cl)c2)NC(=O)C2(CCCC2)NC1=O (stereo not shown) [compound 449]
Ki [2, 7]: 1000 to 10000 nM

C[C@@H]1C(=O)N[C@H](Cc2ccccc2)C(=O)NCCCc2ccccc2OCCN2CCCC[C@H]2C(=O)N1C [drawing 1187]
Ki ([2]; Table 3E, human ghrelin receptor, read-out: Ki): 10 to 100 nM
